From patent US20230302131A1, “MPC INHIBITION FOR PRODUCING T-CELLS WITH A MEMORY PHENOTYPE” (UNIVERSITÉ DE LAUSANNE, priority 2020, published 2023)

Experiments:
[1] = tested on: human CD8 T cells from umbilical cord blood; experiment: Human cord blood PBMC culture with anti-CD3/CD28 beads, CD62L in CD8 T cells by flow cytometry; format: cell-based; conditions: 25 μM; day 11; 3 different donors; versus DMSO
Experimental: To most closely mimic the experimental conditions that were successful by using naïve mouse OT1 CD8 T cells, it was tested whether the MPCi on the most naïve human CD8+ T cells can be obtained, i.e. from umbilical cord blood (FIG. 1E).
(§1) Peripheral blood mononuclear cells were isolated from fresh umbilical vein cord blood on a Percoll gradient. PBMCs were then cultured in RPMI supplemented with 10% human serum. 10^4 PBMC's were seeded per well in a round bottom 96-well plate and activated with anti-CD3/CD28 beads at a 1:2 cell:bead ratio and 300 U/ml rhIL-2, in the presence of 25 μM UK5099 or DMSO. Cells were regularly split and CD62L expression was determined by flow cytometry on day 11.

OT2 CD4 T cells = experiment: OT2 CD4 T cell co-culture with dendritic cells, CD62L by flow cytometry; format: cell-based, mouse; conditions: 75 μM; day 7; vs DMSO
Experimental: Naïve CD4 T cells were isolated by negative selection (Stem Cell Technologies) from the spleen of OT2 mice. Dendritic cells were isolated from spleens of C57BL/6 mice by CD11c positive selection (Stem Cell Technologies). 2×10^5 CD4 T cells were co-cultured with 1×10^6 dendritic cells in RPMI medium supplemented with 10% FBS, 1% Penicillin/Streptomycin, 50 μM β-mercaptoethanol, 1% HEPES, 1× Non-essential amino acids (Gibco 11140-035), 2 mM L-glutamine and 1 mM Sodium Pyruvate. T cells were activated by adding 1 μg/ml Ovalbumine peptide (323-339, ISQAVHAAHAEINEAGR) and 100 IU/ml rhIL-2, in the presence of 75 μM UK5099 or DMSO. Cells were split on day 4 and re-cultured in fresh medium containing 100 IU/ml rhIL-2, in the presence of 75 μM UK5099 or DMSO.
An experiment has been performed on mouse T cells in order to evaluate if MPC inhibition also promotes memory marker expression in CD4 T cells. As indicated in the experimental scheme (FIG. 5A), CD4 T cells from OT2 mice were activated by co-culture with dendritic cells. OT2 mice are transgenic for an […] recognizing specifically a chicken ovalbumine peptide 323-339 associated with the mouse MHC class II molecule I-Ab. We activated OT2 CD4 T cells by co-culture with dendritic cells loaded with […] of the ovalbumine peptide in the presence of 100 IU/ml recombinant human IL2 in the presence of 75 μM UK5099 or DMSO control. […]

human CD4 T cells = experiment: Human cord blood PBMC culture, CD62L in CD3-pos/CD8-neg (CD4) T cells; format: cell-based; conditions: 25 μM; day 11; vs DMSO
Experimental: as §1
CD62L expression in human CD4 T cells was also analyzed. Human cord blood PBMCs were cultured and activated as described before, in the presence of 25p M UK5099 or DMSO control. About 98% of the cells in culture on day 11 are CD3-positive. Since CD3 is exclusively expressed on CD4 and CD8 T cells, we can deduct that all CD3-positive, CD8-negative must be CD4 T cells. When analyzing the CD3-pos/CD8-neg population we observed that CD62L expression is increased upon MPCi treatment (FIG. 5D).

adult human CD8 T cells = experiment: Adult human PBMC activation with anti-CD3/CD28 beads, T cell phenotype by flow cytometry; format: cell-based; conditions: adult PBMCs, day 9, vs DMSO
Experimental: FIG. 7: MPC inhibition during the activation and culture of adult human T cells induces a memory phenotype. (A) Experimental design. PBMCs were isolated from adult healthy volunteers and activated with anti-CD3/CD28 beads in the presence of DMSO or UK5099 (25 μM). Beads were removed at day 5 and T cell phenotype was analysed at day 9. (B) Percentage of CD8 T cells expressing the memory marker CD62L. (C) The mean fluorescent intensity of CD62L in the respective positive population. (D) Percentage of CD8 T cells expressing markers that allows their identification as stem cell memory T cells (TSCM). (E-F) Mitochonrial mass (identified by MitoGreen staining, E) and mitochondrial membrane potential (TMRM, F), measured by flow cytometry and expressed as fold change as compared to DMSO. (G) Mitochondrial membrane potential normalized for the mitochondrial mass, expressed as the ratio of […], fold change as compared to DMSO. Pooled data from 2 independant experiments. ns: non-significant, *p<0.05, **[…], ***p<0.001. Data represents mean±s.e.m.
Heparinised blood was diluted with PBS and pipetted on top of Ficoll-paque (LymphoPrep). After centrifugation at 1800 rpm for 20 minutes at room temperature, the layer of cells at the intersection, containing the PBMCs was removed, washed and resuspended at 5×10^5 cells/ml of RPMI medium containing 8% human serum (AB serum), antibiotics, 2 mM L-Glutamine, 1% non-essential amino acids, 1 mM sodium pyruvate and 50 μM β-mercaptoethanol (all Gibco). Cells were activated with Human T-activator CD3/CD28 Dynabeads at a 1 bead/cell ratio with 150 IU/ml human recombinant IL2 and DMSO or 25 μM UK5099. Throughout the culture, cells were regularly split when necessary and beads were removed at day 5. At day 9, a fraction of the cells was stained with antibodies for flow cytometry analysis or for mitochondrial analysis.

## N#CC(=Cc1cn(-c2ccccc2)c2ccccc12)C(=O)O [UK5099, 2-cyano-3-(1-phenyl-1H-indol-3-yl)-2-propenoic acid]
[1]
  CD62L expression in human cord blood CD8 T cells: significant increase
OT2 CD4 T cells
  CD62L-positive population of mouse CD4 T cells: strong increase
Human CD4 T cells
  CD62L expression in human CD3-pos/CD8-neg (CD4) T cells: increased
Adult human CD8 T cells; 25 μM
  population of stem cell-like memory T cells (TSCM): increased
Adult human CD8 T cells; UK5099 25 μM
  population of CD8 T cells positive for CD62L: further induce
Adult human CD8 T cells
  mean fluorescent intensity of the CD62L signal in the CD62L-positive cells: increased
